# Test results taken from patent US20220289679A1, “HETEROCYCLIC COMPOUND” (Takeda Pharmaceutical Company Limited, priority 2019, published 2022).
# Target: T1, human GCS (glucosylceramide synthase) (Homo sapiens, UniProt Q16739)
# T1 construct: made in house; host or cells: Expi293F cells (transient expression; microsome fraction)
# T1 sequence (Q16739 1-394): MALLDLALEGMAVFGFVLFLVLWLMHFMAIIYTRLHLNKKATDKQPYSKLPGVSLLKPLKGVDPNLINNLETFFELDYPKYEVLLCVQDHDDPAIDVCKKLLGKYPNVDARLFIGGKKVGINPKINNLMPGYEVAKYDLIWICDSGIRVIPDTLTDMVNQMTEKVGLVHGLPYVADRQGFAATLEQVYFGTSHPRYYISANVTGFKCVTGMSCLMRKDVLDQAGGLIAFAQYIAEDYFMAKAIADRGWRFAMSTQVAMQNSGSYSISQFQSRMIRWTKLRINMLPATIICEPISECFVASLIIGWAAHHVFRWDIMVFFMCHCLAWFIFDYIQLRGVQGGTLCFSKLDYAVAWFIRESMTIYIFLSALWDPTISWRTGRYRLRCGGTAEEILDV
# Test: Glucosylceramide Synthase (GCS) Assay
# Assay type: biochemical
# Settings: test compound 10 μM; microsome fraction of Expi293F cells expressing human GCS; 1.7 μM UDP-glucose, 3 μM C8 ceramide; room temperature 60 min; C8 glucosylceramide by Rapidfire MS/MS; read-out: GCS enzyme inhibitory rate at 10 μM (%)
# Method: In enzyme assay, a microsome fraction obtained by transient expression by Expi293F™ cells (catalog number: A14527, Thermo Fisher Scientific) was used as a glucosylceramide synthase source. Liposomal C8 ceramide and UDP-glucose were used as substrates. For each substrate concentration, 1.7 μM UDP-glucose, which is equal to the Km value, and 3 μM C8 ceramide were used. After the enzymatic reaction, the analysis was performed with Rapidfire MS/MS (API-4000™, SCIEX), and C8 glucosylceramide was quantified to evaluate the inhibitory activity of the test compound against glucosylceramide synthase activity.
# PcDNA3.3TOPO vector (catalog number: K830001, Thermo Fisher Scientific) into which the human GCS gene was inserted was introduced into Expi293F™ Cells (catalog number: A14527, Thermo Fisher Scientific) by using ExpiFectamine™ 293 Transfection Kit (catalog number: A14525, Thermo Fisher Scientific). The cultured cells were dissolved in D-PBS (catalog number: 048-29805, Fuji Film Wako Pure Chemical Industries, Ltd.) containing 1 mM PMSF, and the solution was allowed to stand on ice for 30 minutes, and then subjected to cell disruption (homogenized). The disruption solution was centrifuged at 10,000×g for 20 minutes at 4° C., and the obtained supernatant was centrifuged at 142,400×g for 60 minutes at 4° C. The obtained precipitate was resuspended in a D-PBS solution containing 1 mM PMSF, and homogenized again to prepare as a microsome fraction. Protein quantification was performed by the CBB method.
# A 1 mM compound solution prepared by dissolving the test compound in DMSO was added to a 384-well plate by 100 nL so that the final concentration of the test compound was 10 μM. Next, a substrate solution consisting of 3.4 μM UDP-glucose and 6 μM C8 ceramide was added by 5 μL, followed by an enzyme solution consisting of a 25 μg/mL microsome fraction by 5 μL. C8 ceramide was prepared from liposomes composed of 15 mol % C8 ceramide and 85 mol % dioleoyl phosphatidylcholine (1,2-dioleoyl-sn-glycero-3-phosphocholine: DOPC). The enzymatic reaction was carried out in a solution consisting of 20 mM tris-hydrochloric acid buffer (pH 7.5), 0.01% Tween 20, 0.01% bovine serum albumin and 1 mM dithiothreitol at room temperature for 60 min. Then, a solution consisting of 75% isopropanol and 1% formic acid containing 0.25 μM N-Octadecanoyl-D35-psichosine (catalog number: 1914, Matreya) as an internal standard substance was added by 60 μL to stop the enzymatic reaction. 5 μL of the centrifugal supernatant of the obtained reaction product was analyzed by Rapidfire MS/MS (Agilent Technologies) using API-4000™ (SCIEX), and the C8 glucosylceramide was quantified to evaluate the inhibitory activity of the test compound against the glucosylceramide synthase activity. The inhibitory activity of the test compound was evaluated when the C8 glucosylceramide level in the enzyme-free solution was considered as 100% inhibitory and the enzyme activity of the DMSO group in the absence of the compound was considered as 0% inhibitory.
row,inhibition at 10 µM,SMILES
1,95%,"O=C(Nc1ccc(C(O)(C(F)F)C(F)F)nc1)c1cccn(-c2ccnnc2OCC(F)(F)F)c1=O [Example 122, 2-oxo-N-[6-(1,1,3,3-tetrafluoro-2-hydroxypropan-2-yl)pyridin-3-yl]-1-[3-(2,2,2-trifluoroethoxy)pyridazin-4-yl]-1,2-dihydropyridine-3-carboxamide]"
2,98%,"Cc1cc(C(=O)Nc2ccc(C(C)(C)O)nc2)c(=O)n(-c2ccccc2OCC(F)F)n1 [Example 135, 2-[2-(2,2-difluoroethoxy)phenyl]-N-[6-(2-hydroxypropan-2-yl)pyridin-3-yl]-6-methyl-3-oxo-2,3-dihydropyridazine-4-carboxamide]"
3,100%,"O=C(Nc1ccc(C(O)(C(F)F)C(F)F)nc1)c1ccnn(-c2ccc(F)cc2OCC(F)(F)F)c1=O [Example 117, 2-[4-fluoro-2-(2,2,2-trifluoroethoxy)phenyl]-3-oxo-N-[6-(1,1,3,3-tetrafluoro-2-hydroxypropan-2-yl)pyridin-3-yl]-2,3-dihydropyridazine-4-carboxamide]"
4,100%,"Cc1cc(C(=O)Nc2ccc(C(C)(C)O)cc2F)c(=O)n(-c2ccccc2OCC(F)F)n1 [Example 146, 2-[2-(2,2-difluoroethoxy)phenyl]-N-[2-fluoro-4-(2-hydroxypropan-2-yl)phenyl]-6-methyl-3-oxo-2,3-dihydropyridazine-4-carboxamide]"
5,98%,"Cc1cc(NC(=O)c2ccnn(-c3ccccc3OCC(F)F)c2=O)ccc1C(C)(C)O [Example 142, 2-[2-(2,2-difluoroethoxy)phenyl]-N-[4-(2-hydroxypropan-2-yl)-3-methylphenyl]-3-oxo-2,3-dihydropyridazine-4-carboxamide]"
6,96%,"CC(C)(O)Cn1cc(C(=O)Nc2ccc(OCC(F)(F)F)cc2)c(=O)c(-c2ccccc2OCC(F)F)n1 [Example 168, 6-[2-(2,2-difluoroethoxy)phenyl]-2-(2-hydroxy-2-methylpropyl)-5-oxo-N-[4-(2,2,2-trifluoroethoxy)phenyl]-2,5-dihydropyridazine-4-carboxamide]"
7,100%,"O=C(Nc1ccc(OCC2CC2)cc1)c1cccn(-c2ccc(F)cc2OCC(F)(F)F)c1=O [Example 50, N-[4-(cyclopropylmethoxy)phenyl]-1-[4-fluoro-2-(2,2,2-trifluoroethoxy)phenyl]-2-oxo-1,2-dihydropyridine-3-carboxamide]"
8,99%,"O=C(Nc1ccc(C2CCOC2)cc1)c1ccnn(-c2ccccc2OCC(F)F)c1=O (racemic) [Example 145, rac-2-[2-(2,2-difluoroethoxy)phenyl]-3-oxo-N-[4-(oxolan-3-yl)phenyl]-2,3-dihydropyridazine-4-carboxamide]"
9,100%,"O=C(Nc1ccc(C(O)(C(F)F)C(F)F)nc1)c1cn(C2COC2)nc(-c2ccccc2OCC(F)F)c1=O [Example 187, 6-[2-(2,2-difluoroethoxy)phenyl]-2-(oxetan-3-yl)-5-oxo-N-[6-(1,1,3,3-tetrafluoro-2-hydroxypropan-2-yl)pyridin-3-yl]-2,5-dihydropyridazine-4-carboxamide]"
10,97%,"O=C(Nc1ccc(C(F)F)nc1)c1cccn(-c2ccc(F)cc2OCC(F)(F)F)c1=O [Example 49, N-[6-(difluoromethyl)pyridin-3-yl]-1-[4-fluoro-2-(2,2,2-trifluoroethoxy)phenyl]-2-oxo-1,2-dihydropyridine-3-carboxamide]"
11,99%,"O=C(Nc1ccc(C2CC2)cn1)c1cccn(-c2ccccc2OCC(F)(F)F)c1=O [Example 21, N-(5-cyclopropylpyridin-2-yl)-2-oxo-1-[2-(2,2,2-trifluoroethoxy)phenyl]-1,2-dihydropyridine-3-carboxamide]"
12,99%,"O=C(Nc1ccc(C2(O)CC2)cc1)c1cccn(-c2ccc(F)cc2OCC(F)(F)F)c1=O [Example 69, 1-[4-fluoro-2-(2,2,2-trifluoroethoxy)phenyl]-N-[4-(1-hydroxycyclopropyl)phenyl]-2-oxo-1,2-dihydropyridine-3-carboxamide]"
13,86%,"O=C(Nc1ccc(C(O)C2CC2)nc1)c1cccn(-c2ccc(F)cc2OCC(F)(F)F)c1=O (single isomer, unassigned) [Example 115, (R or S)-N-{6-[cyclopropyl(hydroxy)methyl]pyridin-3-yl}-1-[4-fluoro-2-(2,2,2-trifluoroethoxy)phenyl]-2-oxo-1,2-dihydropyridine-3-carboxamide]"
14,71%,"COc1ccccc1-n1c(C)ccc(C(=O)Nc2ccc(Oc3ccccc3)cc2)c1=O [Example 1, 1-(2-methoxyphenyl)-6-methyl-2-oxo-N-(4-phenoxyphenyl)-1,2-dihydropyridine-3-carboxamide]"
15,99%,"CC(C)(O)c1ccc(NC(=O)c2ccnn(-c3ccc(F)cc3OCC(F)(F)C(F)(F)F)c2=O)cc1 [Example 106, 2-[4-fluoro-2-(2,2,3,3,3-pentafluoropropoxy)phenyl]-N-[4-(2-hydroxypropan-2-yl)phenyl]-3-oxo-2,3-dihydropyridazine-4-carboxamide]"
16,99%,"O=C(Nc1ccc(C(O)(C(F)F)C(F)F)nc1)c1cccn(-c2cc(F)ccc2OCC(F)(F)F)c1=O [Example 124, 1-[5-fluoro-2-(2,2,2-trifluoroethoxy)phenyl]-2-oxo-N-[6-(1,1,3,3-tetrafluoro-2-hydroxypropan-2-yl)pyridin-3-yl]-1,2-dihydropyridine-3-carboxamide]"
17,66%,"COc1cc(F)ccc1-n1cccc(C(=O)Nc2ccn(-c3ccc(F)cc3)n2)c1=O [Example 8, 1-(4-fluoro-2-methoxyphenyl)-N-[1-(4-fluorophenyl)-1H-pyrazol-3-yl]-2-oxo-1,2-dihydropyridine-3-carboxamide]"
18,99%,"CC(F)(F)COc1ccccc1-n1cccc(C(=O)Nc2ccc(C(C)(C)O)cc2)c1=O [Example 99, 1-[2-(2,2-difluoropropoxy)phenyl]-N-[4-(2-hydroxypropan-2-yl)phenyl]-2-oxo-1,2-dihydropyridine-3-carboxamide]"
19,99%,"CC(C)(O)c1ccc(NC(=O)c2cccn(-c3ccc(F)cc3OCC(F)(F)F)c2=O)cc1 [Example 42, 1-[4-fluoro-2-(2,2,2-trifluoroethoxy)phenyl]-N-[4-(2-hydroxypropan-2-yl)phenyl]-2-oxo-1,2-dihydropyridine-3-carboxamide]"
20,100%,"O=C(Nc1ccc(C(O)(C(F)F)C(F)F)cc1)c1cn(C2CCOC2)nc(-c2ccccc2OCC(F)F)c1=O (racemic) [Example 196, rac-6-[2-(2,2-difluoroethoxy)phenyl]-5-oxo-2-(oxolan-3-yl)-N-[4-(1,1,3,3-tetrafluoro-2-hydroxypropan-2-yl)phenyl]-2,5-dihydropyridazine-4-carboxamide]"
21,99%,"CC(C)(O)c1cc(C(=O)Nc2ccc(OC(F)F)cc2)c(=O)n(-c2ccccc2OCC(F)(F)F)n1 [Example 200, N-[4-(difluoromethoxy)phenyl]-6-(2-hydroxypropan-2-yl)-3-oxo-2-[2-(2,2,2-trifluoroethoxy)phenyl]-2,3-dihydropyridazine-4-carboxamide]"
22,94%,"Cc1cc(C(=O)Nc2c(F)cc(C(C)(C)O)cc2F)c(=O)n(-c2ccccc2OCC(F)F)n1 [Example 150, 2-[2-(2,2-difluoroethoxy)phenyl]-N-[2,6-difluoro-4-(2-hydroxypropan-2-yl)phenyl]-6-methyl-3-oxo-2,3-dihydropyridazine-4-carboxamide]"
